Common to all, as to format: ADME
In one data set the target is T1, Cytochrome P450 1A2 (Homo sapiens, UniProt P05177).
T1 sequence (P05177 whole entry): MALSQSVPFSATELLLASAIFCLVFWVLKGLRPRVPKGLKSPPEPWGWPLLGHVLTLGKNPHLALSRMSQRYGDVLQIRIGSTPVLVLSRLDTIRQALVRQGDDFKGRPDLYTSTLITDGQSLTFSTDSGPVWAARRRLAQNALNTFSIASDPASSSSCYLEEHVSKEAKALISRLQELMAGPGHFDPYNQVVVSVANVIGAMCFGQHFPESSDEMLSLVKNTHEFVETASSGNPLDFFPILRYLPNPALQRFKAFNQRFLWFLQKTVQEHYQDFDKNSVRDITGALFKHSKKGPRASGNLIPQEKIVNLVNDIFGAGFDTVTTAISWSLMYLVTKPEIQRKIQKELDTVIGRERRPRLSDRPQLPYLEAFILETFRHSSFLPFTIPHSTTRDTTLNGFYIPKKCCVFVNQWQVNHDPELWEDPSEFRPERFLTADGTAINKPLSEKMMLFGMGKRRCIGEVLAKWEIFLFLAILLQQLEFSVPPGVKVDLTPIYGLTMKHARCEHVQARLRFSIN
Nature of the data set: Ratio of Kcat to Km for CYP1A2 (unknown origin) expressed in Escherichia coli DH5alpha preincubated for 5 mins before NADPH addition measured after 30 mins by HPLC analysis. As to conditions: 0.5 h.

A further data set deals with T2, Cytochrome P450 1A1 (Homo sapiens, UniProt P04798).
T2 sequence (P04798 whole entry): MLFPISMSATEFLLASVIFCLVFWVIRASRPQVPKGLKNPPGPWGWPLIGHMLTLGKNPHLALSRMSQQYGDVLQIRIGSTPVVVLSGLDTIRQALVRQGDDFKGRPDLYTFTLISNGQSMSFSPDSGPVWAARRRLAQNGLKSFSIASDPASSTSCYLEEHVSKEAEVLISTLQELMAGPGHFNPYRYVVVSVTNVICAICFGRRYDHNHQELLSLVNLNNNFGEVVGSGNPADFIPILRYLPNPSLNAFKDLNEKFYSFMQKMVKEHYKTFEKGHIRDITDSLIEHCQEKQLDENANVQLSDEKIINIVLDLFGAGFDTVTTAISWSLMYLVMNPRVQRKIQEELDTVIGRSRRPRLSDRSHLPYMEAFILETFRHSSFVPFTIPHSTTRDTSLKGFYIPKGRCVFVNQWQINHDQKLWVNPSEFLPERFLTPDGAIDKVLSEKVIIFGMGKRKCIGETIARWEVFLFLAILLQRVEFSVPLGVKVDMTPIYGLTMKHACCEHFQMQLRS
The data set is described as follows: Ratio of Kcat to Km for CYP1A1 (unknown origin) expressed in Escherichia coli DH5alpha preincubated for 5 mins before NADPH addition measured after 30 mins by HPLC analysis. As to conditions: 0.5 h.

Data set [1] in a line: Ratio of Kcat for CYP1A2 (unknown origin) expressed in Escherichia coli DH5alpha to Kcat for CYP1A1 (unknown origin) expressed in Escherichia coli DH5alpha. As to conditions: human.
The next data set has as its system CYP1A1, CYP1A2. Nature of the data set: Ratio of Km for CYP1A1 (unknown origin) expressed in Escherichia coli DH5alpha to Km for CYP1A2 (unknown origin) expressed in Escherichia coli DH5alpha. As to conditions: human.

In ChEMBL document CHEMBL3525978, “Preferred binding orientations of phenacetin in CYP1A1 and CYP1A2 are associated with isoform-selective metabolism” (Drug Metab Dispos, 2012) one finds Kcat/Km, Ratio and selectivity ratio data, which are given here for two compounds.

For `CC(=O)Nc1ccc(O)cc1` [ACETAMINOPHEN], the figures for the Kcat/Km on Cytochrome P450 1A2 and on Cytochrome P450 1A1 were 0.018 and 0.001, respectively.

Take `CCOc1ccc(NC(C)=O)cc1` [PHENACETIN]: the Ratio in data set [1] is 2.5. The selectivity ratio in the data set on CYP1A1, CYP1A2 worked out at 8.
